Assay results reported in ChEMBL document CHEMBL4823307, “Discovery of benzimidazole derivatives as potent and selective aldehyde dehydrogenase 1A1 (ALDH1A1) inhibitors with glucose consumption improving activity” (Bioorg Med Chem, 2021).
pIC50: −log10 of the molar value.

How the values were obtained:
[1] = biological target: T1, Aldehyde dehydrogenase 1A1 (Homo sapiens) (UniProt P00352); assay: Inhibition of human ALDH1A1 assessed as NADH formation using propionaldehyde as substrate at 10 uM by spectrophotometry
T1 sequence (whole entry): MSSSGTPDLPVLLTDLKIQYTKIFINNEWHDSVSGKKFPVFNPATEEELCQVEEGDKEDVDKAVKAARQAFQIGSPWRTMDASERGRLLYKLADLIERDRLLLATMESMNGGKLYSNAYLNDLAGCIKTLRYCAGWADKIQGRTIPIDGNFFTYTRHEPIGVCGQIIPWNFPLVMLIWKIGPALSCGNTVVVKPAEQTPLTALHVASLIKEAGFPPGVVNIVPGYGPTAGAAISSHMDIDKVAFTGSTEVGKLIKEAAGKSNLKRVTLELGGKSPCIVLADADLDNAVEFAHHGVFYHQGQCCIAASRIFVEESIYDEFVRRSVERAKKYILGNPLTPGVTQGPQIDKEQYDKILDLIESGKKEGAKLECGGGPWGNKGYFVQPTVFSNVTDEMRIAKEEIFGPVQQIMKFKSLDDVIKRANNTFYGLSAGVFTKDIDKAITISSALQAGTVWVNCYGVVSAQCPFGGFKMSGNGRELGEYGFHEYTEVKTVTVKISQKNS

Retinal dehydrogenase 2 = biological target: T2, Retinal dehydrogenase 2 (Homo sapiens, UniProt O94788); assay: Inhibition of human ALDH1A2 assessed as NADH formation using propionaldehyde as substrate by spectrophotometry
T2 sequence (O94788 whole entry): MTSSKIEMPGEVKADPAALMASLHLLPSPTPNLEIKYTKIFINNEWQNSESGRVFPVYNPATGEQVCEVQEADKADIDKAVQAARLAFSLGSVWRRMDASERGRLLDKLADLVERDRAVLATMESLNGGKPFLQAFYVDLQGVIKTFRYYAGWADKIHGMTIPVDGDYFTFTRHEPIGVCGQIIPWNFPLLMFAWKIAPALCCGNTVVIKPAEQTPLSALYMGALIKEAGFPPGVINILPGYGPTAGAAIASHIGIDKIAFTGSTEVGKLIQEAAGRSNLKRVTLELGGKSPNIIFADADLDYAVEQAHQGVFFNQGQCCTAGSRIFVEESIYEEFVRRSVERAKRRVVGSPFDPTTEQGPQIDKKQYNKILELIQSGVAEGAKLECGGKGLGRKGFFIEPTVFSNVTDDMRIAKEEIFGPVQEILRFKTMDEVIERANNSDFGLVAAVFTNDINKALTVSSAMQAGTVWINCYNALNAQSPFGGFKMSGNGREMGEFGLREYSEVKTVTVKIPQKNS

[2] = biological target: T3, Aldehyde dehydrogenase, mitochondrial (Homo sapiens, UniProt P05091); assay: Inhibition of human ALDH2 assessed as NADH formation using propionaldehyde as substrate by spectrophotometry
T3 sequence (P05091 whole entry): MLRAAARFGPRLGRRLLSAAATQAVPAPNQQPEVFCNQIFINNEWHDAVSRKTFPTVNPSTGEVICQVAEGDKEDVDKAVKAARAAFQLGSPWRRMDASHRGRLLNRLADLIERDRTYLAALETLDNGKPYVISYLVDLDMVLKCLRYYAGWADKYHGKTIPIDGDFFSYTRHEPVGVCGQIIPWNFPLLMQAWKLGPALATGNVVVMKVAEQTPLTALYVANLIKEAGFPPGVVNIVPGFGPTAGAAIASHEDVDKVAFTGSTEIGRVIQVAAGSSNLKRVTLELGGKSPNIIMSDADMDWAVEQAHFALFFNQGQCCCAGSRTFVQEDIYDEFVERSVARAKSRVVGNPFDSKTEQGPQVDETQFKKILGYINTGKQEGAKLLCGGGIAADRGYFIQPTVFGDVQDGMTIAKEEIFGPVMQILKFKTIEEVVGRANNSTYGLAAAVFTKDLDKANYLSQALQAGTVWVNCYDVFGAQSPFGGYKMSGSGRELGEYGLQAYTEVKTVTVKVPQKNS

[3] = biological target: T4, Aldehyde dehydrogenase, dimeric NADP-preferring (Homo sapiens, UniProt P30838); assay: Inhibition of human ALDH3A1 assessed as NADH formation using propionaldehyde as substrate by spectrophotometry
T4 sequence (P30838 whole entry): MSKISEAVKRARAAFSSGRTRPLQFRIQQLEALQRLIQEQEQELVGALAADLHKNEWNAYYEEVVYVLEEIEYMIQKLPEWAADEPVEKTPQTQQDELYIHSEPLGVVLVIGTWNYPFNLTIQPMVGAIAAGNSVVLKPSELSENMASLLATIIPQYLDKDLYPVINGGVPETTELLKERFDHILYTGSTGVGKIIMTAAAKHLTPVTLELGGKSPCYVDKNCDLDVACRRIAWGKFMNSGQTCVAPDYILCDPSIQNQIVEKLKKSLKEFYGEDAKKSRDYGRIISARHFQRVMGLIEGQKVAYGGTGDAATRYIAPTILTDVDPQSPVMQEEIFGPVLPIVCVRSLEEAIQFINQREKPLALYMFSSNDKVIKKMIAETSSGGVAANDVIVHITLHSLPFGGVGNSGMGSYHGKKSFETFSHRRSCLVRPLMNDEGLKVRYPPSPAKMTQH

[4] = biological target: T5, Aldehyde dehydrogenase 1A1 (Homo sapiens, UniProt P00352); assay: Inhibition of human ALDH1A1 assessed as NADH formation using propionaldehyde as substrate by spectrophotometry
T5 sequence (P00352 whole entry): T1 sequence (whole entry)

[5] = biological target: T6, Retinaldehyde dehydrogenase 3 (Homo sapiens, UniProt P47895); assay: Inhibition of human ALDH1A3 assessed as NADH formation using propionaldehyde as substrate by spectrophotometry
T6 sequence (P47895 whole entry): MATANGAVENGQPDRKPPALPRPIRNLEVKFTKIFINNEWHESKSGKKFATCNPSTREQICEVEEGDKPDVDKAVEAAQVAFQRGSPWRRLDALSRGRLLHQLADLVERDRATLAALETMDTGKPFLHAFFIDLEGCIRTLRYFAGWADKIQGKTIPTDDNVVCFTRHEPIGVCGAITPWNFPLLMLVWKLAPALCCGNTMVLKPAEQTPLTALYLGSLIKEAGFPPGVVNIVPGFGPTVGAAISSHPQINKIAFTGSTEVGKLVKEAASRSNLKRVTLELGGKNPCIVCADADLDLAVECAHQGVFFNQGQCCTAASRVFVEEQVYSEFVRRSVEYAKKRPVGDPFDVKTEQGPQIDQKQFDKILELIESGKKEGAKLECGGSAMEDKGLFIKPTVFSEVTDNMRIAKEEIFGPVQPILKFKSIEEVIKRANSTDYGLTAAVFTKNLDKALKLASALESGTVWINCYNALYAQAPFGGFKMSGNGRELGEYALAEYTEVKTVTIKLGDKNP

[6] = Cytotoxicity against human HepG2 cells assessed as cell viability at 10 uM incubated for 24 hrs by MTT assay relative to control; format: cell-based; conditions: read-out: Activity
HepG2 [7] = assay: Cytotoxicity against human HepG2 cells assessed as morphological changes at 0.1 to 10 uM incubated for 24 hrs; format: cell-based; conditions: hepg2, 24 h, dose 0.1-10 µM
[8] = Metabolic stability in human liver microsomes assessed as first order elimination rate constant at 2 ug/ml measured up to 45 mins by LC-MS/MS analysis; format: ADME, Microsome; conditions: dose 2 µg/ml
HepG2 [9] = assay: Increase in glucose consumption in human HepG2 cells at 10 uM by glucose oxidase assay; format: functional
[10] = Cytotoxicity against human HepG2 cells assessed as cell viability at 1 uM incubated for 24 hrs by MTT assay relative to control; format: cell-based; conditions: read-out: Activity
[11] = Cytotoxicity against human HepG2 cells assessed as cell viability at 0.1 uM incubated for 24 hrs by MTT assay relative to control; format: cell-based; conditions: read-out: Activity
[12] = Metabolic stability in human liver microsomes assessed as half life at 2 ug/ml measured up to 45 mins by LC-MS/MS analysis; format: ADME, Microsome; conditions: dose 2 µg/ml
[13] = Metabolic stability in human liver microsomes assessed as intrinsic clearance at 2 ug/ml measured up to 45 mins by LC-MS/MS analysis; format: ADME, Microsome; conditions: dose 2 µg/ml, read-out: CLH

Row | SMILES | inhibition [1] [%] | pIC50 (Retinal dehydrogenase 2) | pIC50 [2] | pIC50 [3] | pIC50 [4] | pIC50 [5] | k el at 0.75 h, 2 ug/ml [8] [s⁻¹] | half-life at 2 ug/ml [12] [min] | microsomal CLint at 2 ug/ml [13] [µL/min/mg] | viability at 24 h, 10 µM [6] [%] | Activity (HepG2 [7]) | Activity (HepG2 [9]) [%] | viability at 24 h, 1 µM [10] [%] | viability at 24 h, 0.1 µM [11] [%]
1 | CC(C)=CCn1c(CN2CCN(C(=O)C3CC3)CC2)nc2ccccc21 | 74.3 | 5.79 | 5.83 | 5.67 | 5.82 | 5.90 |  |  |  |  |  |  |  | 
2 | Cc1cccc(Cn2c(CN3CCN(C(=O)C4CC4)CC3)nc3ccccc32)c1 | 89.1 | 5.80 | 6.10 |  | 6.61 | 5.67 | 0.000333 | 35 | 80 | 90 | Non-Toxic | 25 | 91.3 | 93.4
3 | O=C(C1CC1)N1CCN(Cc2nc3ccccc3n2Cc2cccc(C(F)(F)F)c2)CC1 | 82.1 | 5.86 | 5.66 |  | 6.04 | 6.23 | 0.000433 | 27 | 104 | 90 | Non-Toxic | 30 | 91.8 | 95.9

Now from value to compound, other results behind:

Row | inhibition [1] [%] | pIC50 (Retinal dehydrogenase 2) | pIC50 [2] | pIC50 [3] | pIC50 [4] | pIC50 [5] | k el at 0.75 h, 2 ug/ml [8] [s⁻¹] | half-life at 2 ug/ml [12] [min] | microsomal CLint at 2 ug/ml [13] [µL/min/mg] | SMILES | viability at 24 h, 10 µM [6] [%] | Activity (HepG2 [7]) | Activity (HepG2 [9]) [%] | viability at 24 h, 1 µM [10] [%] | viability at 24 h, 0.1 µM [11] [%]
4 | 71.6 | 6.05 | 5.64 | 5.84 | 5.68 | 6.00 |  |  |  | O=C(C1CC1)N1CCN(Cc2nc3ccccc3n2Cc2cccc(Cl)c2)CC1 |  |  |  |  | 
5 | 78.3 | 5.71 | 5.50 | 5.72 | 5.99 | 5.62 | 0.000367 | 32 | 88 | O=C(C1CC1)N1CCN(Cc2nc3ccccc3n2Cc2ccccc2Cl)CC1 | 85.7 | Non-Toxic | 28 | 91.9 | 93.8
